Source: ChEMBL document CHEMBL1201862, “PubChem BioAssay data set” (2004)
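The compound was tested at five concentrations on cells cultured in 96-well plates, with a 48-hour exposure period. GI50: concentration for 50% inhibition of growth.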 Calls of active or inactive are those of the source. Rule as the data show it: active = GI50 up to about 1.1 µM and inactive = higher.

What was measured:
Assay in all cases: NCI-60 cell line screen, 48 h
HL-60 = test system: HL-60
ACHN = test system: ACHN
IGROV-1 = test system: IGROV-1
SF-295 = test system: SF-295
SK-MEL-28 = test system: SK-MEL-28
TK-10 = test system: TK-10
LOX IMVI = test system: LOX IMVI
SF-539 = test system: SF-539
MOLT-4 = test system: MOLT-4
M14 = test system: M14
Malme-3M = test system: Malme-3M
OVCAR-5 = test system: OVCAR-5
EKVX = test system: EKVX
CCRF-CEM = test system: CCRF-CEM
RPMI-8226 = test system: RPMI-8226
RXF 393 = test system: RXF 393
SN12C = test system: SN12C
LXFL 529 = test system: LXFL 529
HOP-92 = test system: HOP-92
HCT-116 = test system: HCT-116
HT-29 = test system: HT-29
HOP-62 = test system: HOP-62
M19-MEL = test system: M19-MEL
K562 = test system: K562
NCI-H226 = test system: NCI-H226
NCI-H460 = test system: NCI-H460
SK-OV-3 = test system: SK-OV-3
KM-20L2 = test system: KM-20L2
DMS-273 = test system: DMS-273
COLO 205 = test system: COLO 205
UO-31 = test system: UO-31
DLD-1 = test system: DLD-1
SR = test system: SR
HCT-15 = test system: HCT-15
SK-MEL-2 = test system: SK-MEL-2
KM12 = test system: KM12
SNB-75 = test system: SNB-75
SW-620 = test system: SW-620
OVCAR-8 = test system: OVCAR-8
DMS-114 = test system: DMS-114
NCI-H522 = test system: NCI-H522
CAKI-1 = test system: CAKI-1
HCC 2998 = test system: HCC 2998
UACC-62 = test system: UACC-62
A549 = test system: A549
SNB-19 = test system: SNB-19
XF498 = test system: XF498
OVCAR-4 = test system: OVCAR-4
OVCAR-3 = test system: OVCAR-3
SF-268 = test system: SF-268

With Cn1c(=O)n(CC2CS2)c2ccccc21 (stereo not given) the GI50 (HL-60) was 71.6 µM (inactive), the GI50 (ACHN) was > 100 µM (inactive) and the GI50 (IGROV-1) was > 100 µM (inactive). For the same compound, the GI50 (SF-295) was > 100 µM (inactive), the GI50 (SK-MEL-28) was > 100 µM (inactive) and the GI50 (TK-10) was > 100 µM (inactive). The GI50 (LOX IMVI) was > 100 µM (inactive), the GI50 (SF-539) was > 100 µM (inactive) and the GI50 (MOLT-4) was 88.1 µM (inactive). The GI50 (M14) was > 100 µM (inactive), the GI50 (Malme-3M) was > 100 µM (inactive) and the GI50 (OVCAR-5) was > 100 µM (inactive). For the same compound, the GI50 (EKVX) was > 100 µM (inactive), the GI50 (CCRF-CEM) was 70 µM (inactive) and the GI50 (RPMI-8226) was > 100 µM (inactive). The GI50 (RXF 393) was > 100 µM (inactive), the GI50 (SN12C) was > 100 µM (inactive) and the GI50 (LXFL 529) was > 100 µM (inactive). For the same compound, the GI50 (HOP-92) was 68.4 µM (inactive), the GI50 (HCT-116) was > 100 µM (inactive) and the GI50 (HT-29) was > 100 µM (inactive). For the same compound, the GI50 (HOP-62) was > 100 µM (inactive), the GI50 (M19-MEL) was > 100 µM (inactive) and the GI50 (K562) was > 100 µM (inactive). The GI50 (NCI-H226) was > 100 µM (inactive), the GI50 (NCI-H460) was > 100 µM (inactive) and the GI50 (SK-OV-3) was > 100 µM (inactive). For the same compound, the GI50 (KM-20L2) was > 100 µM (inactive), the GI50 (DMS-273) was > 100 µM (inactive) and the GI50 (COLO 205) was > 100 µM (inactive). For the same compound, the GI50 (UO-31) was > 100 µM (inactive), the GI50 (DLD-1) was > 100 µM (inactive) and the GI50 (SR) was 99.3 µM (inactive). The GI50 (HCT-15) was over 100 µM, the GI50 (SK-MEL-2) was > 100 µM (inactive) and the GI50 (KM12) was > 100 µM (inactive). For the same compound, the GI50 (SNB-75) was > 100 µM (inactive), the GI50 (SW-620) was > 100 µM (inactive) and the GI50 (OVCAR-8) was > 10 µM (inactive). For the same compound, the GI50 (DMS-114) was 50.9 µM (inactive), the GI50 (NCI-H522) was > 100 µM (inactive) and the GI50 (CAKI-1) was 44.5 µM (inactive). For the same compound, the GI50 (HCC 2998) was > 100 µM (inactive), the GI50 (UACC-62) was > 100 µM (inactive) and the GI50 (A549) was > 100 µM (inactive). For the same compound, the GI50 (SNB-19) was > 100 µM (inactive), the GI50 (XF498) was > 100 µM (inactive) and the GI50 (OVCAR-4) was > 100 µM (inactive). The GI50 (OVCAR-3) was > 100 µM (inactive) and the GI50 (SF-268) was > 100 µM (inactive).
